Legend:
Format in all cases: cell-based
BT549 cells = experiment: Gene expression by qRT-PCR (TUBB reference)
Procedure: (§1) Cell culture and drug treatments. Cell lines were obtained from ATCC (American Type Culture Collection, Manassas, VA) and grown under standard conditions (5% CO2, 10% FBS (fetal bovine serum), with 5% antifungal/antibacterial). Cell lines were tested for Mycoplasma using the MycoAlert Mycoplasma Detection Kit (Lonza, Basel Switzerland, cat: LT07-218); all experiments were done with mycoplasma negative cells. U87MG cells were propagated in MEM (Minimal Essential Medium). BT549 and DBTRG cells were propagated in RPMI (Roswell Park Memorial Institute 1640 Medium). LN18, U118MG, A172 and LN229 cells were propagated in DMEM (Dulbecco's Modified Eagle Medium). Neurosphere/cancer stem cell cultures for U87MG and BT549 cell lines were plated with 40,000 cells per mL in 3D Tumorsphere Medium XF (Sigma cat: C-28070, Burlington, MA). BT549 cancer stem cell cultures were supplemented with 1XB27 XenoFree CTS (Gibco/Thermo Fisher Waltham, MA, USA). AS1842856 was purchased from Calbiochem (Danvers, MA) and utilized at 200 nM, 500 nM and 1 μM final concentrations as indicated. AS1708727 was purchased from MedChem Express (Monmouth Junction, NJ) and was used at 0.5 μM, 1.0 µM and 2.0 μM concentrations. 5-aza-2'-deoxycytidine (5-AZA) was purchased from Millipore/Sigma (Burlington, MA) and utilized at a final concentration of 3 μM. Total RNA was prepared using the Qiagen RNeasy kit (Hilden, Germany), which was then used to generate cDNA using Superscript Reverse Transcriptase II (Invitrogen, Carlsbad, CA). Samples (cDNAs) were analyzed using (Power SYBR Green Master Mix, Applied Biosystems, Foster City, CA) and the ABI Step-One Real-time system (Carlsbad, CA). Expression levels were normalized to Beta-Tubulin, TUBB in gene expression experiments and calculated using 2-4ACT method (Livak et al., 2001). Primer sequences are detailed in Table 1. MDA-MB-468 cells were grown to log phase in DMEM with 10% FBS without antibiotics. BT549 cells were grown to log phase in DMEM with 10% FBS without antibiotics. Cells were transfected with FOXO1 esiRNA (EHU156591 Sigma, St. Louis, MO) or EGFP control esiRNA (EHUEGFP) using Lipofectamine 3000 (utilized only […] reagent, Invitrogen, Carlsbad, CA).

MDA-MB-468 cells = experiment: Gene expression by qRT-PCR (TUBB reference)
Procedure: as §1

MDA-MB-468 = experiment: Colony formation assay (crystal violet); conditions: treated five days
LN18 = experiment: Colony formation assay (crystal violet); conditions: treated five days
Procedure: (§2) Cell culture and drug treatments. Cell lines were obtained from ATCC (American Type Culture Collection, Manassas, VA) and grown under standard conditions (5% CO2, 10% FBS (fetal bovine serum), with 5% antifungal/antibacterial). Cell lines were tested for Mycoplasma using the MycoAlert Mycoplasma Detection Kit (Lonza, Basel Switzerland, cat: LT07-218); all experiments were done with mycoplasma negative cells. U87MG cells were propagated in MEM (Minimal Essential Medium). BT549 and DBTRG cells were propagated in RPMI (Roswell Park Memorial Institute 1640 Medium). LN18, U118MG, A172 and LN229 cells were propagated in DMEM (Dulbecco's Modified Eagle Medium). Neurosphere/cancer stem cell cultures for U87MG and BT549 cell lines were plated with 40,000 cells per mL in 3D Tumorsphere Medium XF (Sigma cat: C-28070, Burlington, MA). BT549 cancer stem cell cultures were supplemented with 1XB27 XenoFree CTS (Gibco/Thermo Fisher Waltham, MA, USA). AS1842856 was purchased from Calbiochem (Danvers, MA) and utilized at 200 nM, 500 nM and 1 μM final concentrations as indicated. AS1708727 was purchased from MedChem Express (Monmouth Junction, NJ) and was used at 0.5 μM, 1.0 µM and 2.0 μM concentrations. 5-aza-2′-deoxycytidine (5-AZA) was purchased from Millipore/Sigma (Burlington, MA) and utilized at a final concentration of 3 μM. Cells were plated at a density of 2,700 cells per mL and were treated five days with indicated drug. Treatments were investigated in triplicate (in numerous independent experiments) and stained with crystal violet. Plates were aspirated of media then each well was washed with 1.0 mL of 1x phosphate buffered saline (PBS) once before being stained with 1.0 mL of crystal violet stain (0.5% crystal violet in buffered formalin) and incubated for 15 minutes. The stain was aspirated, and wells were washed 3 times with 0.5 mL of 1x PBS. After collections were completed, crystal violet-stained plates were solubilized using 0.5 mL on each well of 10% acetic acid and placed on shaker for 1 hour. Solubilized samples were transferred to 96 well plates and quantified on a spectrophotometer at 590 nm. Quantified plates were analyzed with a Tukey test. Error bars were added using the standard deviation. Cells were plated at 2,700 cells per mL and were treated five days with the indicated drug. Treatments were investigated in triplicate (in numerous independent experiments) and stained with crystal violet. Plates were aspirated of media, then each well was washed with 1.0 mL of 1× phosphate-buffered saline (PBS) once before being stained with 1.0 mL of crystal violet stain (0.5% crystal violet in buffered formalin) and incubated for 15 minutes. The stain was aspirated, and cells were washed three times with 0.5 mL of 1×PBS. After collections were completed, crystal violet-stained plates were solubilized using 0.5 mL on each well of 10% acetic acid and placed on a shaker for 1 hour. Solubilized samples were transferred to 96 well plates and quantified on a spectrophotometer at 590 nm using iMark Microplate Absorbance Reader (Bio-Rad, Hercules, CA). Quantified plates were analyzed with a Tukey Test. Error bars were added using the standard deviation.

BT549 = experiment: Colony formation assay (crystal violet); conditions: treated five days
Procedure: as §2

Row | Compound | FAS and BIM gene induction, comparison of the two inhibitors (BT549 cells) | FAS gene expression (BT549 cells; 1 μM treatment for 4 days) | FAS and BIM gene induction, comparison of the two inhibitors (MDA-MB-468 cells) | FAS gene expression (MDA-MB-468 cells; four days, 1 μM for two days) | colony formation (MDA-MB-468) | colony formation (LN18) | colony formation (BT549) | FAS and BIM expression (BT549 cells; 3 μM for 48 hours)
1 | CN(C(=O)CC1CCCC1)c1ccc(Cl)c(COc2cccc3cnccc23)c1Cl [AS1708727, 2-cyclopentyl-N-[2,4-dichloro-3-(isoquinolin-5-yloxymethyl)phenyl] N-methylacetamide] | only induced the FAS gene | increased FAS gene expression | only induced the FAS gene | increased FAS gene expression | reduced colony formation | reduced colony formation | reduced colony formation | –
2 | Nc1ncn([C@H]2C[C@H](O)[C@@H](CO)O2)c(=O)n1 [5-AZA, 5-aza-2′-deoxycytidine] | – | – | – | – | – | – | – | induced FAS and BIM
